Assay results published in patent publication US20090258849A1, “NITROOXY DERIVATIVES OF GLUCOCORTICOIDS” (Nicox S.A., priority 2005, published 2009).

Experiments:
[1] = system: PGE2; test: TPA-induced increase of PGE2 in mouse ear; format: in vivo, Swiss male mice; settings: for PGE2: ear homogenate, Mean ± S.E.M. (n = 10)
Description: (§1) A ear section of the right ear of mice were homogenized in 500 μl saline, and after centrifugation at 1,200 g for 15 min at 4° C., the PGE2 and TNF-α levels were determined by radioimmunoassay (Hoult et al., Methods Enzymol 1994) or by time-resolved fluoroimmunoassay ([…] et al., Int J. Immunopharmacol. 1995), respectively. Test compounds dissolved in the vehicle were applied topically 15 min before TPA administration.

[2] = system: irritant contact dermatitis induced by benzalkonium chloride; test: Contact dermatitis induced by benzalkonium in mice (ear edema); format: in vivo; parameters: Ear edema (left ears) value: unit not given here
Description: Irritant contact dermatitis was induced by applying 5% benzalkonium chloride (100 μl per site, dissolved in olive oil:acetone, 1:5 v/v) on the dorsal aspect of the two ears. Ear diameter was measured as a parameter for edema formation, before and hourly for 6 hours after benzalkonium chloride application, using an electronic caliper. The last measurement was performed at 8-hours after dermatitis induction.
(§2) The tested compounds were applied topically dissolved in ethanol:sterile water (1:1) and applied at a final volume of 100 μl, five minutes after irritant contact dermatitis will be induced.
Ear edema (left ears) value for times 1 to 4 hours after irritant stimuli with benzalkonium chloride are represented in the table 3.

[3] = system: TNF-α; test: TPA-induced increase of TNF-α in mouse ear; format: in vivo, Swiss male mice; settings: for TNFalpha: ear homogenate, Mean ± S.E.M. (n = 10)
Description: as §1

[4] = system: dermal microvasculature, leukocyte/endothelial cells interaction; test: Intravital microscopy of skin flap in mice (vessel diameter, rolling leukocytes); format: in vivo, C57B16 male mice; parameters: unit not given here; settings: 3 nmol topical
Description: C57B16 male mice will be anaesthetized by intraperitoneal injection of a mixture of 10 mg/kg xylazine (MTC Pharmaceuticals, Cambridge, Ontario, Canada) and 200 mg/kg ketamine hydrochloride (Rogar/STB, London, Ontario, Canada). […] Therefore, after anaesthesia, mice will receive an intravenous injection of a fluorescent dye, rhodamine 6G (Sigma, St. Louis, Mo., USA, 0.3 mg/kg). […] Then, a midline abdominal incision will be performed, from the diaphragm, extending to the pelvic region. The skin will carefully be separated from the underlying tissue, but remained attached laterally, so the blood supply to the skin flap remained intact. The skin flap will be extended over a viewing pedestal to expose the dermal microvasculature and secured along the edges using 4.0 sutures. The exposed dermal tissues will be superfused with a bicarbonate-buffered saline pH 7.4, to avoid tissue dehydration. The microcirculation will be observed using an inverted microscope (Nikon) with a ×20 objective lens, and rhodamine 6G allows visualization and quantification of the number of rolling and adherent leukocytes, by epi-illumination at 510-560 nm, using a 590-nm emission filter. Single unbranched venules (20-40 μm in diameter) will be selected for the study. Images of the selected venule will be recorded for […], after a 15-min equilibration period and the end of this 5-min interval was considered as time 0. Leukocyte adherence will be determined upon video playback, on 100 μm vessel length (table 4). A leukocyte will be considered adherent to the endothelium if it remained stationary for 30 s or more. Leukocyte flux will be defined as the number of leukocytes per minute moving at a velocity less than that of erythrocytes, which passed a reference point in the venule. The changes in flux of rolling leukocytes will be evaluated as differences between the number of rolling leukocytes at each interval and the basal number of rolling leukocytes (table 5).
as §2

[5] = system: TPA-induced ear oedema; test: Inhibition of TPA-induced ear oedema after topical administration; format: in vivo, male Swiss mice; settings: TPA 2 μg/ear, topical 20 μL of 0.39 nM solution in ethanol 15 min before TPA, ear weight change; for % inhibition 3 hours post-treatment: 3 h post TPA; for % inhibition 5 hours post-treatment: 5 h post TPA
From the text: The tested compounds are: • (11β,16α)-9-fluoro-11-hydroxy-16,17-[1-methylethylidene bis(oxy)]-21-[1-oxo-[4-(nitrooxymethyl)benzoxy]]pregna-1,4-diene-3,20-dione, prepared as described in example 1; • Triamcinolone acetonide that is the reference compound for the compound of example 1; • (11β)-17-[(ethoxycarbonyl)oxy]-11-hydroxy-21-[1-oxo-[4-(nitrooxy methyl)benzoxy]]pregna-1,4-diene-3,20-dione, prepared as described in example 2; • Prednicarbate that is the reference compound for the compound of example 2; The tests were performed according to the methods described by Carlson et al., Agents Actions 17:197-204, 1985, and Lucas et al., J Pharmacol Exp Ther 304:1172-1180, 2003.
Groups of 5-9 male Swiss mice of 27±5 g were used. Inflammation dermatitis was induced by applying 2 μg/ear of TPA (Tetradecanoyl Phorbol Acetate) dissolved with ethanol absolute on the surface of either the dorsal aspect of both ears (20 μL/ear).
15 min before the application of TPA, mice received topically 20 μL of a solution of test compounds (0.39 nM in ethanol) per site applied directly on the skin of the left ear and the vehicle (ethanol 100%) on right ear. Vehicle-Vehicle treated mice were included as negative control group. Compounds were tested at equimolecular doses.
Animals were sacrificed at 3 h or 5 h post TPA dose. Equal sections of both ears were punched out immediately after and weighed. The percentage of change of the weight of left ear versus the weight of right ear was calculated for each animal, and the percentage of inhibition of change in weight of treated animals versus the change in weight of non-treated animals (negative control) was measured.

[6] = 1 μg/ear topical 15 min before TPA
[7] = 3 nmol topical, 1 hour after benzalkonium application
[8] = 3 nmol topical, 2 hours after benzalkonium application
[9] = 3 nmol topical, 3 hours after benzalkonium application
[10] = 3 nmol topical, 4 hours after benzalkonium application
[11] = 0.48 μg/ear topical 15 min before TPA

| Structure (SMILES) | Ear edema (left ears) value [2, 7] | Ear edema (left ears) value [2, 8] | Ear edema (left ears) value [2, 9] | Ear edema (left ears) value [2, 10] | Area under the curve (change in flux of rolling leucocytes) [4] | Area under the curve (change in vessel diameter) [4] | % inhibition 3 hours post-treatment [5] [%] | % inhibition 5 hours post-treatment [5] [%] | further results |
| --- | --- | --- | --- | --- | --- | --- | --- | --- | --- |
| CC1(C)O[C@@H]2C[C@H]3[C@@H]4CCC5=CC(=O)C=C[C@]5(C)[C@@]4(F)[C@@H](O)C[C@]3(C)[C@]2(C(=O)CO)O1 [Triamcinolone acetonide, reference compound] | 0.037 ± 0.005 | 0.063 ± 0.010 | 0.041 ± 0.018 | 0.068 ± 0.022 | 376 ± 129 | 278 ± 78 | 14.90 | 12.19 | PGE2 [1, 6]: 43.0 ± 3.8 ng/mL; TNFalpha [3, 6]: 158.0 ± 24.6 pg/mL |
| CCOC(=O)O[C@]1(C(=O)COC(=O)CC)CC[C@H]2[C@@H]3CCC4=CC(=O)C=C[C@]4(C)[C@H]3[C@@H](O)C[C@@]21C [Prednicarbate, reference compound] |  |  |  |  | 412 ± 112 | 282 ± 71 | 19.58 |  |  |
| CCOC(=O)O[C@]1(C(=O)COC(=O)c2ccc(CO[N+](=O)[O-])cc2)CC[C@H]2[C@@H]3CCC4=CC(=O)C=C[C@]4(C)[C@H]3[C@@H](O)C[C@@]21C [Example 2, (11β)-17-[(ethoxycarbonyl)oxy]-11-hydroxy-21-[1-oxo-[4-(nitrooxymethyl)benzoxy]]pregna-1,4-diene-3,20-dione] | 0.025 ± 0.008 | 0.028 ± 0.009 | 0.040 ± 0.009 | 0.061 ± 0.007 | 300 ± 75 | 175 ± 70 | 33.26 |  |  |
| CC1(C)O[C@@H]2C[C@H]3C4CCC5=CC(=O)C=C[C@]5(C)[C@@]4(F)[C@@H](O)C[C@]3(C)[C@]2(C(=O)COC(=O)c2ccc(CO[N+](=O)[O-])cc2)O1 (stereo partly drawn) [Example 1, (11β,16α)-9-fluoro-11-hydroxy-16,17-[1-methylethylidenebis(oxy)]-21-[1-oxo-[4-(nitrooxymethyl)benzoxy]]pregna-1,4-diene-3,20-dione] | 0.018 ± 0.004 | 0.042 ± 0.007 | 0.042 ± 0.010 | 0.070 ± 0.007 | 247 ± 35 | 114 ± 32 | 22.70 | 21.01 | PGE2 [1, 11]: 53.2 ± 4.5 ng/mL; Reduction of PGE2 level / inflammation, result in words ([1]; low dose versus higher dose of the parent compound): more effective in reducing the inflammation than the correspondent parent compound; Ear edema (left ears) value ([2]; 0.3 nmol topical, 1 hour after benzalkonium application): 0.026 ± 0.005; Ear edema (left ears) value ([2]; 0.3 nmol topical, 2 hours after benzalkonium application): 0.035 ± 0.008; Ear edema (left ears) value ([2]; 0.3 nmol topical, 3 hours after benzalkonium application): 0.053 ± 0.009; Ear edema (left ears) value ([2]; 0.3 nmol topical, 4 hours after benzalkonium application): 0.047 ± 0.007; Ear edema (left ears) value ([2]; 1 nmol topical, 1 hour after benzalkonium application): 0.020 ± 0.006; Ear edema (left ears) value ([2]; 1 nmol topical, 2 hours after benzalkonium application): 0.035 ± 0.008; Ear edema (left ears) value ([2]; 1 nmol topical, 3 hours after benzalkonium application): 0.057 ± 0.011; Ear edema (left ears) value ([2]; 1 nmol topical, 4 hours after benzalkonium application): 0.065 ± 0.010; Inhibition of ear edema, result in words ([2]; compared with triamcinolone acetonide, mainly at earlier times): dose-dependent effect in inhibiting ear edema with a better profile than triamcinolone acetonide; TNFalpha [3, 11]: 149.5 ± 17.8 pg/mL; Inhibition of TNF-α release, result in words ([3]; versus prior art compound): inhibits the release of TNF-α in a higher potency than the prior art compound |
